# Source: PubChem BioAssay AID330 (DTP/NCI, 2004)
# Several values for one entry are separate records, joined by “and”; a condition that tells them apart may be missing. Equal entries are not always repeated. Inconclusive results and toxic doses are left out.
# Test system: P388 leukemia ip, CD2F1 mice, survival T/C
# Assay: NCI In Vivo Anticancer Drug Screen. Data for tumor model P388 Leukemia (intraperitoneal) in CD2F1 (CDF1) mice
# Conditions: endpoint: median survival time, higher = longer survival
# In short: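 Mice carrying the transplanted tumor received test compound or vehicle. Survival was recorded in each group, and the value is the treated-group measurement divided by that of the vehicle-treated control group.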
# [1] = dose: 50.0 mg/kg/injection, schedule: Q01DX005 (ip), vehicle: Klucel (hydroxypropylcellulose) (HPC)
# [2] = dose: 100.0 mg/kg/injection, schedule: Q01DX005 (ip), vehicle: Klucel (hydroxypropylcellulose) (HPC)
# [3] = dose: 200.0 mg/kg/injection, schedule: Q01DX005 (ip), vehicle: Klucel (hydroxypropylcellulose) (HPC)
# [4] = dose: 60.0 mg/kg/injection, schedule: Q01DX005 (ip), vehicle: Klucel (hydroxypropylcellulose) (HPC)
# [5] = dose: 15.0 mg/kg/injection, schedule: Q01DX005 (ip), vehicle: Klucel (hydroxypropylcellulose) (HPC)
# [6] = dose: 30.0 mg/kg/injection, schedule: Q01DX005 (ip), vehicle: Klucel (hydroxypropylcellulose) (HPC)
# [7] = dose: 50.0 mg/kg/injection, schedule: Q01DX005 (ip), vehicle: saline with Tween-80
# [8] = dose: 100.0 mg/kg/injection, schedule: Q01DX005 (ip), vehicle: saline with Tween-80
# [9] = dose: 200.0 mg/kg/injection, schedule: Q01DX005 (ip), vehicle: saline with Tween-80
structure (smiles),measurement,setting,value
COc1ccc2c(c1OC)CN1CCc3cc4c(cc3C1C2C)OCO4 (stereo not given),T/C,"dose: 50.0 mg/kg/injection, schedule: Q04DX003 (ip), vehicle: distilled water + Tween-80",91 % of control
same,T/C,"dose: 100.0 mg/kg/injection, schedule: Q04DX003 (ip), vehicle: distilled water + Tween-80",96 % of control
same,T/C,"dose: 200.0 mg/kg/injection, schedule: Q04DX003 (ip), vehicle: distilled water + Tween-80",91 % of control
same,T/C,"dose: 400.0 mg/kg/injection, schedule: Q04DX003 (ip), vehicle: distilled water + Tween-80",89 % of control
CC(C)CC(NC(=O)CCNC(=O)OCc1ccccc1)C(=O)O (stereo not given),T/C,[1],100 % of control
same,T/C,[2],101 % of control
same,T/C,[3],91 % of control
O=C1C2=C(Nc3cc([N+](=O)[O-])ccc3N2)OC1c1ccccc1 (stereo not given),T/C,[4],91 % of control
same,T/C,"dose: 120.0 mg/kg/injection, schedule: Q01DX005 (ip), vehicle: Klucel (hydroxypropylcellulose) (HPC)",91 % of control
same,T/C,"dose: 240.0 mg/kg/injection, schedule: Q01DX005 (ip), vehicle: Klucel (hydroxypropylcellulose) (HPC)",99 % of control
CC1(C)CC(=O)C=C(NCCCCCCCCNC2=CC(=O)CC(C)(C)C2)C1,T/C,"dose: 50.0 mg/kg/injection, schedule: Q01DX009 (ip), vehicle: Klucel (hydroxypropylcellulose) (HPC)",95 % of control
same,T/C,"dose: 100.0 mg/kg/injection, schedule: Q01DX009 (ip), vehicle: Klucel (hydroxypropylcellulose) (HPC)",106 % of control
same,T/C,"dose: 200.0 mg/kg/injection, schedule: Q01DX009 (ip), vehicle: Klucel (hydroxypropylcellulose) (HPC)",100 % of control
Cc1ccc(Cl)cc1NC(=O)N(C)CCOC(=O)Nc1cccc(Cl)c1,T/C,"dose: 60.0 mg/kg/injection, schedule: Q01DX005 (ip), vehicle: Klucel + Tween-80",93 % of control
same,T/C,"dose: 120.0 mg/kg/injection, schedule: Q01DX005 (ip), vehicle: Klucel + Tween-80",92 % of control
C=C(Cl)CC(N)C(=O)O (stereo not given),T/C,[1],104 % of control
same,T/C,[2],104 % of control
O=C(O)CCC1(CCC(=O)O)OCCO1.[Ag],T/C,"dose: 9.5 mg/kg/injection, schedule: Q01DX009 (ip), vehicle: saline sonified",100 % of control
same,T/C,"dose: 19.0 mg/kg/injection, schedule: Q01DX009 (ip), vehicle: saline sonified",109 % of control
same,T/C,"dose: 38.0 mg/kg/injection, schedule: Q01DX009 (ip), vehicle: saline sonified",86 % of control
COc1cc(CC2COCC2Cc2ccc3c(c2)OCO3)cc(OC)c1OC (stereo not given),T/C,"dose: 1.25 mg/kg/injection, schedule: Q04DX002 (ip), vehicle: acetone",101 % of control and 103 % of control
same,T/C,"dose: 2.5 mg/kg/injection, schedule: Q04DX002 (ip), vehicle: acetone",101 % of control and 96 % of control and 104 % of control
same,T/C,"dose: 5.0 mg/kg/injection, schedule: Q04DX002 (ip), vehicle: acetone",93 % of control and 96 % of control and 103 % of control
CCCCCCCCCCCC(CCCC)CCCCCCCCCC (stereo not given),T/C,"dose: 50.0 mg/kg/injection, schedule: Q01DX001 (ip), vehicle: saline sonified",100 % of control
same,T/C,"dose: 100.0 mg/kg/injection, schedule: Q01DX001 (ip), vehicle: saline sonified",104 % of control
same,T/C,"dose: 200.0 mg/kg/injection, schedule: Q01DX001 (ip), vehicle: saline sonified",100 % of control
CC1(C)N=C(N)N=C(N)N1c1ccc(C(C#N)CCCc2ccccc2)cc1 (stereo not given),T/C,"dose: 7.5 mg/kg/injection, schedule: Q01DX005 (ip), vehicle: Klucel (hydroxypropylcellulose) (HPC)",100 % of control
same,T/C,[5],101 % of control
same,T/C,[6],103 % of control
O=NNc1nc2c(Cl)cccc2s1,T/C,"dose: 1.56 mg/kg/injection, schedule: Q01DX009 (ip), vehicle: water",102 % of control
same,T/C,"dose: 3.12 mg/kg/injection, schedule: Q01DX009 (ip), vehicle: water",101 % of control
same,T/C,"dose: 3.15 mg/kg/injection, schedule: Q01DX009 (ip), vehicle: water",102 % of control
same,T/C,"dose: 6.25 mg/kg/injection, schedule: Q01DX009 (ip), vehicle: water",99 % of control and 100 % of control
same,T/C,"dose: 12.5 mg/kg/injection, schedule: Q01DX009 (ip), vehicle: water",99 % of control and 114 % of control
same,T/C,"dose: 25.0 mg/kg/injection, schedule: Q01DX009 (ip), vehicle: water",100 % of control and 111 % of control
same,T/C,"dose: 50.0 mg/kg/injection, schedule: Q01DX009 (ip), vehicle: water",106 % of control
N=C1CCC(=N)c2c1c(O)c1ccccc1c2O,T/C,"dose: 6.25 mg/kg/injection, schedule: Q01DX005 (ip), vehicle: saline with Tween-80",94 % of control
same,T/C,"dose: 12.5 mg/kg/injection, schedule: Q01DX005 (ip), vehicle: saline with Tween-80",104 % of control
same,T/C,"dose: 25.0 mg/kg/injection, schedule: Q01DX005 (ip), vehicle: saline with Tween-80",94 % of control
C[Si](C)(C)O/C=C1\CCc2ccccc2C1=O,T/C,[7],100 % of control
same,T/C,[8],101 % of control
same,T/C,[9],114 % of control
CC1CC(=O)c2c(CO)nn(CCCO)c2C1 (stereo not given),T/C,[5],101 % of control
same,T/C,[6],102 % of control
same,T/C,[4],101 % of control
same,T/C,"dose: 60.0 mg/kg/injection, schedule: Q01DX005 (ip), vehicle: saline",101 % of control
CCOP(=S)(N/N=C(\C)c1ccc(C)s1)OCC,T/C,[1],104 % of control
same,T/C,[2],113 % of control
same,T/C,[3],114 % of control
Nc1nc([Se]c2nc(N)nc3c2ncn3C2OC(CO)C(O)C2O)c2ncn(C3OC(CO)C(O)C3O)c2n1 (stereo not given),T/C,"dose: 25.0 mg/kg/injection, schedule: Q01DX005 (ip), vehicle: distilled water + Tween-80",150 % of control
same,T/C,"dose: 50.0 mg/kg/injection, schedule: Q01DX005 (ip), vehicle: distilled water + Tween-80",161 % of control
same,T/C,"dose: 100.0 mg/kg/injection, schedule: Q01DX005 (ip), vehicle: distilled water + Tween-80",156 % of control
Clc1ccc(Cl)c(N=NNc2cc(Cl)ccc2Cl)c1,T/C,"dose: 12.5 mg/kg/injection, schedule: Q01DX009 (ip), vehicle: saline with Tween-80",96 % of control
same,T/C,"dose: 25.0 mg/kg/injection, schedule: Q01DX009 (ip), vehicle: saline with Tween-80",99 % of control
same,T/C,"dose: 25.0 mg/kg/injection, schedule: Q01DX009 (ip), vehicle: saline",98 % of control
same,T/C,"dose: 50.0 mg/kg/injection, schedule: Q01DX009 (ip), vehicle: saline with Tween-80",97 % of control
same,T/C,"dose: 50.0 mg/kg/injection, schedule: Q01DX009 (ip), vehicle: saline",94 % of control
same,T/C,"dose: 100.0 mg/kg/injection, schedule: Q01DX009 (ip), vehicle: saline with Tween-80",98 % of control
same,T/C,"dose: 100.0 mg/kg/injection, schedule: Q01DX009 (ip), vehicle: saline",92 % of control
same,T/C,"dose: 100.0 mg/kg/injection, schedule: Q04DX003 (ip), vehicle: saline with Tween-80",104 % of control
same,T/C,"dose: 200.0 mg/kg/injection, schedule: Q01DX009 (ip), vehicle: saline with Tween-80",88 % of control
same,T/C,"dose: 200.0 mg/kg/injection, schedule: Q01DX009 (ip), vehicle: saline",92 % of control
same,T/C,"dose: 200.0 mg/kg/injection, schedule: Q04DX003 (ip), vehicle: saline with Tween-80",104 % of control
same,T/C,"dose: 400.0 mg/kg/injection, schedule: Q04DX003 (ip), vehicle: saline with Tween-80",95 % of control
Fc1ccc(-c2nc3ccccn3c2N=Nc2ccccc2)cc1,T/C,[7],88 % of control
same,T/C,[8],97 % of control
same,T/C,[9],94 % of control
COc1cc(C[C@H]2c3cc(OC)c(OC)c(O)c3CCN2C)c(Oc2cc3c(cc2OC)-c2c(OC)c(OC)c(OC)c4c2C(C3)N(C)CC4)cc1OC (stereo not given in full) (tested in a mixture with another compound),T/C,"dose: 8.75 mg/kg/injection, schedule: Q01DX005 (ip), vehicle: Klucel (hydroxypropylcellulose) (HPC)",103 % of control
same,T/C,"dose: 17.5 mg/kg/injection, schedule: Q01DX005 (ip), vehicle: Klucel (hydroxypropylcellulose) (HPC)",99 % of control
same,T/C,"dose: 35.0 mg/kg/injection, schedule: Q01DX005 (ip), vehicle: Klucel (hydroxypropylcellulose) (HPC)",96 % of control
same,T/C,"dose: 70.0 mg/kg/injection, schedule: Q01DX005 (ip), vehicle: Klucel (hydroxypropylcellulose) (HPC)",94 % of control
C[N+]1(C)CCCC(O)(C(=O)c2ccccc2)C1 (stereo not given),T/C,"dose: 100.0 mg/kg/injection, schedule: Q01DX001 (ip), vehicle: saline",98 % of control
same,T/C,"dose: 200.0 mg/kg/injection, schedule: Q01DX001 (ip), vehicle: saline",100 % of control
CN(C)C(=O)CC(c1ccccc1)C(CO)c1ccccc1 (stereo not given),T/C,"dose: 25.0 mg/kg/injection, schedule: Q01DX001 (ip), vehicle: Klucel (hydroxypropylcellulose) (HPC)",88 % of control
same,T/C,"dose: 50.0 mg/kg/injection, schedule: Q01DX001 (ip), vehicle: Klucel (hydroxypropylcellulose) (HPC)",91 % of control
same,T/C,"dose: 100.0 mg/kg/injection, schedule: Q01DX001 (ip), vehicle: Klucel (hydroxypropylcellulose) (HPC)",89 % of control
same,T/C,"dose: 200.0 mg/kg/injection, schedule: Q01DX001 (ip), vehicle: Klucel (hydroxypropylcellulose) (HPC)",88 % of control
CC(NC(=O)OCc1ccccc1)C(=O)NC(Cc1c[nH]c2ccccc12)C(=O)O (stereo not given),T/C,[1],99 % of control
same,T/C,[2],97 % of control
same,T/C,[3],95 % of control
